Measured values: patent publication US10253039B2, “Inhibitors of bacterial DNA gyrase with efficacy against gram-negative bacteria” (priority 2014, dated 2019)
Converted amounts (≈) assume the structure as drawn.

Legend:
Format in all cases: cell-based
E. coli MG1655 = assay: MIC, 20-strain panel; details: Escherichia coli, MG1655, A: E. coli MG1655; read-out: MIC
Protocol: (§1) A microdilution method in 96-well plates was used and the MIC protocol established by the Clinical Laboratory Standards Institute was followed. From a growing subculture, a 1:10000 inoculum of each strain in Luria-Bertani media was prepared and aliquoted 100 μL in 4 columns of wells, except for the top row wells, which contained 200 μL of inoculum. A solution of gyramide C2 was aliquoted into 3 of the wells containing 200 μL and DMSO was added to the 4th well. The liquid in each of wells was mixed with a multi-channel pipet and 100 μL was transferred to the next well and mixed. The 2-fold dilution was continued down the 96-well plate until 100 μL was left, which was discarded. The plates were incubated at 37° C. with shaking for 16-18 hours. The MIC was determined as the lowest concentration that inhibited growth and had no turbidity by visual inspection.
(§2) Minimum inhibitory concentrations of various gyramide compounds against 20 strains of bacteria were determined using the procedure described above.

Shigella flexneri = assay: MIC, 20-strain panel; details: G: Shigella flexneri
Protocol: as §1, §2

[1] = test system: Salmonella enterica subsp. enterica typhimurium; assay: MIC, 20-strain panel; details: F: Salmonella enterica subsp. enterica Typhimurium
Protocol: as §1, §2

[2] = test system: Staphylococcus saprophyticus subsp. saprophyticus; assay: MIC, 20-strain panel
Protocol: as §1, §2

Streptococcus pyogenes = assay: MIC, 20-strain panel
Protocol: as §1, §2

[3] = test system: Staphylococcus aureus subsp. aureus; assay: MIC, 20-strain panel; details: H: Staphylococcus aureus subsp. aureus, read-out: MIC
Protocol: as §1, §2

[4] = test system: Staphylococcus epidermidis; assay: MIC, 20-strain panel
Protocol: as §1, §2

E. coli JW5503 (deltolC) = assay: MIC, 20-strain panel; details: Escherichia coli, C: E. coli JW5503 (deltolC)
Protocol: as §1, §2

Streptococcus agalactiae = assay: MIC, 20-strain panel
Protocol: as §1, §2

[5] = test system: Klebsiella pneumoniae subsp. pneumoniae; assay: MIC, 20-strain panel; details: E: Klebsiella pneumoniae subsp. pneumoniae
Protocol: as §1, §2

Edwardsiella tarda = assay: MIC, microdilution in 96-well plates; details: D: Edwardsiella tarda
Summary of the method: (§3)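 MIC read by eye as the lowest concentration without turbidity, after 16-18 h shaking incubation at 37° C. Cells: 1:10000 inoculum from growing subculture in LB. Compound in 2-fold serial dilutions, triplicate wells, DMSO vehicle control; CLSI protocol.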

E. coli BW25113 = assay: MIC, microdilution in 96-well plates; details: Escherichia coli, BW25113, B: E. coli BW25113; read-out: MIC
Summary of the method: as §3

Row | Structure (SMILES) | MIC (E. coli MG1655) [µg/mL] | MIC (Shigella flexneri) [µg/mL] | MIC [1] [µg/mL] | MIC [2] [µg/mL] | MIC (Streptococcus pyogenes) [µg/mL] | MIC [3] [µg/mL] | MIC [4] [µg/mL] | MIC (E. coli JW5503 (deltolC)) [µg/mL] | MIC (Streptococcus agalactiae) [µg/mL] | MIC [5] [µg/mL] | MIC (Edwardsiella tarda) [µg/mL] | MIC (E. coli BW25113) [µg/mL]
1 | O=S(=O)(N[C@@H]1CCN(Cc2ccc(-c3cccc(Cl)c3)cc2)C1)c1cccc(C(F)(F)F)c1 [Compound 50] | > 8 | > 8 | > 8 | > 8 | ~8 (≈ 16.2 µM) | 8 (≈ 16.2 µM) | 2 (≈ 4.04 µM) | 8 (≈ 16.2 µM) | > 8 | > 8 | > 8 | > 8
2 | O=S(=O)(N[C@@H]1CCN(Cc2ccc(OC(F)(F)F)cc2)C1)c1cccc(OC(F)(F)F)c1 [Compound 51] | > 8 | > 8 | > 8 | > 8 | > 8 | > 8 | > 8 | 4 (≈ 8.26 µM) | > 8 | > 8 | > 8 | > 8
3 | O=S(=O)(N[C@@H]1CCN(Cc2ccc(SC(F)(F)F)cc2)C1)c1cccc(C(F)(F)F)c1 [Compound 52] | > 8 | > 8 | > 8 | > 8 | > 8 | > 8 | > 8 | 4 (≈ 8.26 µM) | > 8 | > 8 | > 8 | > 8
4 | O=S(=O)(N[C@@H]1CCN(Cc2ccc(-c3cccs3)cc2)C1)c1cccc(OC(F)(F)F)c1 [Compound 53] | > 8 | > 8 | > 8 | > 8 | > 8 | > 8 | 8 (≈ 16.6 µM) | 4 (≈ 8.29 µM) | > 8 | > 8 | > 8 | > 8
5 | N#Cc1cccc(S(=O)(=O)N[C@@H]2CCN(Cc3ccc(OC4CCOCC4)cc3)C2)c1 [Compound 54] | > 8 | > 8 | 8 (≈ 18.1 µM) | > 8 | > 8 | > 8 | > 8 | 2 (≈ 4.53 µM) | > 8 | > 8 | > 8 | > 8
6 | O=S(=O)(N[C@@H]1CCN(Cc2ccc(SC(F)(F)F)cc2)C1)c1cccc(OC(F)(F)F)c1 [Compound 55] | > 8 | > 8 | > 8 | > 8 | > 8 | > 8 | > 8 | 8 (≈ 16 µM) | > 8 | > 8 | > 8 | > 8
7 | Cc1c(CN2CC[C@@H](NS(=O)(=O)c3cccc(C(F)(F)F)c3)C2)cnn1-c1ccccc1 [Compound 56] | > 8 | > 8 | > 8 | > 8 | > 8 | > 8 | > 8 | > 8 | > 8 | > 8 | > 8 | > 8
8 | O=S(=O)(N[C@@H]1CCN(Cc2ccc(-c3nccs3)cc2)C1)c1cccc(C(F)(F)F)c1 [Compound 57] | > 8 | > 8 | > 8 | > 8 | > 8 | > 8 | > 8 | 8 (≈ 17.1 µM) | > 8 | > 8 | > 8 | > 8
9 | O=S(=O)(N[C@@H]1CCN(Cc2ccc(-c3cncnc3)cc2)C1)c1cccc(C(F)(F)F)c1 [Compound 58] | > 8 | > 8 | > 8 | > 8 | > 8 | > 8 | > 8 | 8 (≈ 17.3 µM) | > 8 | > 8 | > 8 | > 8
10 | CC(C)Oc1ccc(CN2CC[C@@H](NS(=O)(=O)c3cnccc3Cl)C2)cc1 [Compound 59] | > 8 | > 8 | > 8 | > 8 | > 8 | > 8 | > 8 | > 8 | > 8 | > 8 | > 8 | > 8
